# Experimental data taken from paper PMC6696315, “Inhibiting Acetylcholinesterase to Activate Pleiotropic Prodrugs with Therapeutic Interest in Alzheimer’s Disease” (Molecules, 2019).
# Entries after “also recorded” stand apart in the source; their conditions may differ.
# Columns and labels:
# mice [1] = assay: Spontaneous locomotor activity (actimeter); type: in vivo, NMRI mice; settings: IP 30 min before test, 1, 3 and 10 mg/kg
# Protocol: Locomotor activity. The locomotion of mice was measured using an actimeter (Imetronic®, Pessac, France) through infrared detection. Eight individual removable polycarbonate cages (21 cm length, 7 cm wide and 12 cm high), in which each mouse was placed, were used in the actimeter. Locomotor activity was measured by recording the number of interruptions of beams of the red light over a period of 30 min through a recording system attached to the actimeter. Compound 20 was tested at 1, 3 and 10 mg/kg. Chlorpromazine (3 mg/kg) were used as depressive reference.
# [2] = Parallel artificial membrane permeability assay (PAMPA-BBB)
# Protocol: The ability of carbamate 20 to cross the BBB was assessed using a parallel artificial membrane permeability assay experiment. […] The parallel artificial membrane permeability assay (PAMPA) blood–brain barrier (BBB) experiments were conducted using the Pampa Explorer Kit (Pion Inc., Billerica, MA, USA) according to the protocol provided by the manufacturer. […] The PAMPA sandwich was assembled and allowed to incubate at room temperature for 4 h without stirring. The sandwich was then separated, and the UV-visible spectra were measured for both the donor and receiver wells with the microplate reader (Tecan Infinit M200).
# mice [3] = assay: Spontaneous alternation (Y maze), MK801-induced deficit; type: in vivo, NMRI mice; settings: 1 mg/kg IP 30 min before test, MK801 0.1 mg/kg SC
# Protocol: (§1) Animals. Adult male NMRI mice (3 months old, weighing 35–40 g) from Janvier labs (Le Genest-Saint-Isle, France) were used to perform experiments. Mice were housed by ten in standard polycarbonate cages in standard controlled conditions (22 ± 2 °C, 55 ± 10% humidity) with a reversed 12 h light/dark cycle (light on at 7 pm). Food and water were available ad libitum in the home cage. All experiments were conducted (between 9 am and 3 pm) during the active–dark phase of the cycle and were in agreement with the European Directives and French law on animal experimentation (personal authorization n° 14–17 for MB and 14–60 for TF).
# (§2) Spatial working memory. The antiamnesic activity of the tested compounds was evaluated by a reversal of deficit on spontaneous alternation behavior in the Y maze test. […] The Y maze made of grey plastic consisted of three equally-spaced arms (21-cm long, 7-cm wide with walls 15-cm high). The mouse was placed at the end of one of the arms and allowed to move freely through the maze during a 5 min session, while the sequence of arm entries was recorded by an observer. An arm entry was scored when all four feet crossed into the arm. An alternation was defined as entries into all three arms on a consecutive occasion.
# (§3) Pharmacological treatments.
# mice [4] = assay: CNS-activity and acute toxicity test; settings: mice, IP
# Protocol: as §1
# (§4) CNS-activity and acute toxicity test. Behavioral and neurological changes induced by graded doses (1, 10, 100 mg/kg) of the tested derivatives were evaluated in mice, in groups of four, by a standardized observation technique at different times (30 min, 3 and 24 h) after intraperitoneal administration. […] The approximate DL50 of the compounds were also calculated through the quantification of mortality after 24 h. Amphetamine (2 mg/kg) and chlorpromazine (10 mg/kg) were used as the stimulant and depressive references, respectively.
# [5] = CNS-activity and acute toxicity test; settings: male, NMRI, mouse, in vivo, ip
# Protocol: as §1, §4
# AChE [6] = target: T1, AChE (Homo sapiens, UniProt P22303); assay: AChE inhibition, Ellman assay; type: biochemical; parameters: AChE from human erythrocytes; purchased Sigma Aldrich; host or cells: human erythrocytes (natural source); settings: (h)AChE IC50, Ellman assay; mean ± SEM of at least two experiments
# T1 sequence (P22303 32-617 isoform P22303-2 limits assumed): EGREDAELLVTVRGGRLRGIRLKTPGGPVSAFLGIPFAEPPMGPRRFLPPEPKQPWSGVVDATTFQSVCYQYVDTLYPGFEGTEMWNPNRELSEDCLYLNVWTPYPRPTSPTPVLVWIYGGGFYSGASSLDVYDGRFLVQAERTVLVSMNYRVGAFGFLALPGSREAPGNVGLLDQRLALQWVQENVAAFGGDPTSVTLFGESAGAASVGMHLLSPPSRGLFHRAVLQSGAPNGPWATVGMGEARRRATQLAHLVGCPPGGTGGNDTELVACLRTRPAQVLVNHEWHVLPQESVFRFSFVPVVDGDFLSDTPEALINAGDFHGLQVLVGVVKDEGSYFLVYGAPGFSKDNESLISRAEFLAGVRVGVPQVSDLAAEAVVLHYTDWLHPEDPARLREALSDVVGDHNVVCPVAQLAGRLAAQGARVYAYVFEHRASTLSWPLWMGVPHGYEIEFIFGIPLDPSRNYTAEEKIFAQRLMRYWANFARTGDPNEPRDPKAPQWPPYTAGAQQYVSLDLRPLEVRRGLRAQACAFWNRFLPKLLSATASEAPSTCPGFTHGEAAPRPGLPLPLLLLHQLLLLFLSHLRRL
# Protocol: All the synthesized phenolic derivatives and their carbamates were evaluated as potential inhibitors of human AChE, using the Ellman assay, as well as potential ligands for human 5-HT4R using a radioligand displacement assay.
# The inhibitory capacity of compounds on AChE biological activity was evaluated through the use of the spectrometric method of Ellman. Acetylthiocholine iodide and 5,5-dithiobis-(2-nitrobenzoic) acid (DTNB) were purchased from Sigma Aldrich. AChE from human erythrocytes (buffered aqueous solution, ≥500 units/mg protein (BCA), Sigma Aldrich, St. Louis, MO, USA) was diluted in 20 mM HEPES buffer pH 8, 0.1% Triton X-100 such as to have enzyme solution with 0.25 unit/mL enzyme activity. In the procedure, 100 μL of 0.3 mM DTNB dissolved in a phosphate buffer with pH 7.4 were added into the 96-well plates followed by 50 μL of the test compound solution and 50 μL of enzyme (0.05 U final). After 5 min of preincubation at 25 °C, the reaction was then initiated by the injection of 50 μL of 10 mM acetylthiocholine iodide solution. […] Assays were performed with a blank containing all components except acetylthiocholine, in order to account for non-enzymatic reactions. The reaction slopes were compared and the percent inhibition due to the presence of test compounds was calculated by the following expression: 100 − (vi/v0 × 100), where vi is the rate calculated in the presence of inhibitor and v0 is the enzyme activity.
# AChE [7] = target: T1, AChE; assay: Kinetic study for AChE inhibition (Lineweaver-Burk plots); type: biochemical
# Protocol: To try to clarify the mechanism of action of 19 and 20, reciprocal plots of 1/velocity vs. 1/[substrate] were constructed at different concentrations of the substrate acetylthiocholine iodide (0.01–1 mM) by using the spectrometric method by Ellman et al.. Four concentrations of 19 were selected for the studies: 10^−6, 10^−7, 10^−8 and 10^−9 M for the kinetic analysis of AChE inhibition. Four concentrations of 20 were selected for the studies: 10^−5, 10^−6, 10^−7 and 10^−8 M for the kinetic analysis of AChE inhibition. The plots were assessed by a weighted least squares analysis that assumed the variance of velocity (ν) to be a constant percentage of ν for the entire dataset. Slopes of these reciprocal plots were then plotted against the concentration of 19 and 20 in a weighted analysis.
# mice [8] = assay: Spontaneous alternation (Y maze), scopolamine-induced deficit; type: in vivo, NMRI mice; settings: 1 mg/kg IP 30 min before test, scopolamine 0.5 mg/kg SC
# Protocol: as §1, §2, §3
smiles,measurement,setting,value
"CCN(C)C(=O)Oc1cccc(CN2CCC(CCC(=O)c3cc(Cl)c(N)cc3OC)CC2)c1.O=C(O)/C=C/C(=O)O [Compound 20, [3-[[4-[3-(4-Amino-5-chloro-2-methoxyphenyl)-3-oxopropyl]-1-piperidyl]methyl]phenyl] N-ethyl-N-methyl-carbamate fumaric acid salt]",spontaneous locomotor activity versus NaCl,mice [1],"none of the tested doses of compound 20 (1, 3 and 10 mg/kg) statically modified spontaneous locomotor activity"
same,LogPe,"[2]; PAMPA effective permeability coefficient, pH 7.4, 4 h",−4.39
same,"Papp at 4 h, 100 μM","[2]; PAMPA, pH 7.4",40.7 ×10⁻⁶ cm/s
same,brain penetration (BBB crossing),[2]; classification from PAMPA,good brain penetration
same,percentage of spontaneous alternation,mice [3],significantly different from the value of the chance level
same,Symptoms (Subtoxic Doses),mice [4]; 100 mg/kg,"100, tremors, hypoactivity full recovery after 24h"
same,Symptoms (Subtoxic Doses),mice [4]; 1–10 mg/kg,"1–10, no symptoms"
same,LD50 at 24 h,[5],> 100 mg/kg
same,IC50,AChE [6],6.07 ± 0.404 µM
same,mechanism of AChE inhibition,AChE [7],mixed-type AChE inhibitor; also recorded: mixed-type inhibition
same,percentage of spontaneous alternation,mice [8],significantly different from the value of the chance level
